The text below walks through data of US10155769B2, “Fused azaheterocyclic compounds and their use as AMPA receptor modulators” (Janssen Pharmaceutica NV, priority 2016, dated 2018).

The structures appear in SMILES notation.

Sequence of GluA1o-γ8 (P42261 other isoform, or with tags, fused parts or gaps): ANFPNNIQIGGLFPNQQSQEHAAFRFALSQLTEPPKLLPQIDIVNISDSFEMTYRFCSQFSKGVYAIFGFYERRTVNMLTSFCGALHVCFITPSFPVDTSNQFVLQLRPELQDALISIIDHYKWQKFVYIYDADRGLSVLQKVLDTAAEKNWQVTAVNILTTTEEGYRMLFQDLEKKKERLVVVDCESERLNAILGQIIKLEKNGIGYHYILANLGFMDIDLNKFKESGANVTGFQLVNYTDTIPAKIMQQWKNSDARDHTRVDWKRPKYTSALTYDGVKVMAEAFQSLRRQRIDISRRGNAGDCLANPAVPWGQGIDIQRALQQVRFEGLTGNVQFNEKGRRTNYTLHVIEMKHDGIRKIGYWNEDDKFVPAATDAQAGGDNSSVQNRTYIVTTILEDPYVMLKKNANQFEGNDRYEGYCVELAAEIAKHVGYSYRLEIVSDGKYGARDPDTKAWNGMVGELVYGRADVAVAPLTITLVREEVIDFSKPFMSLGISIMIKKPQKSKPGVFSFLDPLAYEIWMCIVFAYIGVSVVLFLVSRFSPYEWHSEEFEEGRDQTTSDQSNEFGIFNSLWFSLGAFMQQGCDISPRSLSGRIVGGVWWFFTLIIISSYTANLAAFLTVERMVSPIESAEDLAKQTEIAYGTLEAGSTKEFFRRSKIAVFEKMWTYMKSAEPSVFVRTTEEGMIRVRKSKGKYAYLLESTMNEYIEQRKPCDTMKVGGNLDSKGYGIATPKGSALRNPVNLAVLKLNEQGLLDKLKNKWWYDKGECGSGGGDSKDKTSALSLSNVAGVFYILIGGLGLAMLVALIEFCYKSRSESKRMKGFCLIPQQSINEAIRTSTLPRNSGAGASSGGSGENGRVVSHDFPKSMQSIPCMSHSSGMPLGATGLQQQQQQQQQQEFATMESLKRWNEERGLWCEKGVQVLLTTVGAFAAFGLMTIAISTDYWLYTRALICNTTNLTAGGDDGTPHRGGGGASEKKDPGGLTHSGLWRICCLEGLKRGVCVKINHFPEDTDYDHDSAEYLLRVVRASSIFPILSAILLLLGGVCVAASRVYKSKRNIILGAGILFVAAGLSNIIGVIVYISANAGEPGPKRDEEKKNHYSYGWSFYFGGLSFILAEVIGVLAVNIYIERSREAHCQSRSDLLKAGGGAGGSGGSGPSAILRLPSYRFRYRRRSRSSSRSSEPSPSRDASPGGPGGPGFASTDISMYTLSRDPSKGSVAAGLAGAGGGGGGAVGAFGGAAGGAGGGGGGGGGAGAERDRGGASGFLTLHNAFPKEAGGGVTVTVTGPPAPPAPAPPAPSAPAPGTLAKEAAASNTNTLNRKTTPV

The assay deals with GluA1o-γ8 (Homo sapiens (Human), UniProt P42261+Q8WXS5). In words: Calcium flux assay (FLIPR), inhibition of TARP γ8 dependent AMPA receptor activity. It is filed as cell-based. As to conditions: HEK293 cells stably expressing GRIA1o-CACNG8 fusion construct; calcium flux following 15 μM glutamate; negative log of IC50 in molar. From the text:
This assay was used to test compounds for their ability to inhibit TARP γ8 dependent AMPA receptor activity. The AMPA receptor is a non-selective cation channel activated by glutamate. Ionotropic glutamate receptors normally desensitize too rapidly to allow detectable calcium influx in a FLIPR assay (Strange et al. (2006). “Functional characterisation of homomeric ionotropic glutamate receptors GluR1-GluR6 in a fluorescence-based high throughput screening assay.” Comb Chem High Throughput Screen 9(2): 147-158). But, this desensitization is incomplete, and a substantial steady-state current remains in the sustained presence of glutamate (Cho et al. (2007). “Two families of TARP isoforms that have distinct effects on the kinetic properties of AMPA receptors and synaptic currents.” Neuron 55(6): 890-904).
An in vitro assay was used to determine the potency of test compounds as inhibitors of the glutamate response of the channel formed by GluA1o-γ8. To ensure a 1:1 stoichiometry of GluA1o and γ8 subunits in the expressed channel, a fusion of the cDNAs for GRIA1o and CACNG8 was used. Following Shi et al (2009) “The stoichiometry of AMPA receptors and TARPs varies by neuronal cell type.” Neuron 62(5): 633-640), the C-terminus of the cDNA for GRIA1o was fused to the N-terminus of the cDNA for γ8. The linker sequence was QQQQQQQQQQEFAT. Channels expressed with this construct appear to have similar properties to channels formed by co-expression of GRIA1o with an excess of CACNG8 (Shi et al. 2009). A clonal cell line in HEK293 cells stably expressing this construct, with a geneticin selection marker, was generated for use in this assay.
Cell expressing the GRIA1o-CACNG8 fusion construct were grown in a monolayer in 96- or 384-well microtiter plates. They were washed with assay buffer (135 mM NaCl, 4 mM KCl, 3 mM CaCl2, 1 mM MgCl2, 5 mM glucose, 10 mM HEPES, pH 7.4, 300 mOs) using a Biotek EL405 plate washer. The cells were then loaded with a calcium-sensitive dye (Calcium-5 or Calcium-6, Molecular Devices) and the test compounds at a range of concentrations. Calcium flux following the addition of 15 μM glutamate was monitored using a Molecular Devices FLIPR Tetra.
The fluorescence in each well was normalized to the fluorescence of negative and positive control wells. The negative control wells had no added compounds, and the positive control wells had been incubated with 10 μM CP465022 (a non-subtype-selective AMPA receptor antagonist) (Lazzaro et al. (2002). “Functional characterization of CP-465,022, a selective, noncompetitive AMPA receptor antagonist.” Neuropharmacology 42(2): 143-153). The responses to glutamate as functions of the test compound concentrations were fitted to a four-parameter logistic function. The fitted parameter corresponding to the midpoint was taken to be the potency of inhibition of the compound. The data in Table 4 below illustrates the observed potency for the compounds described herein. pIC50 refers to the negative log of the IC50 in molar.
In general terms: Calcium assays in cells follow changes in intracellular calcium, usually with a dye or a luminescent sensor.
Take `FC(F)(F)c1cn2ccc(C(F)(F)F)c(-c3cc(Cl)c4[nH]ncc4c3)c2n1` [Example 88, 5-(2,7-Bis(trifluoromethyl)imidazo[1,2-a]pyridin-8-yl)-7-chloro-1H-indazole]: the pIC50 (usually the IC50 on a negative log10 scale, so that one unit is a factor of ten) is 10.3. Still for that read-out and setting: in the case of `Cc1cc(-c2c(C(F)(F)F)ccn3nc(C(F)F)nc23)cc2cn[nH]c12` [Example 16, 8-(7-Methyl-1H-indazol-5-yl)-2-(difluoromethyl)-7-(trifluoromethyl)-[1,2,4]triazolo[1,5-a]pyridine] it was 9.0; in that of `CC(C)c1ncn2cc(C(F)F)nc2c1-c1cc(Cl)c2[nH]ncc2c1` [Example 72, 8-(7-Chloro-1H-indazol-5-yl)-2-(difluoromethyl)-7-isopropyl-imidazo[1,2-c]pyrimidine], 9.5; in that of `COCc1nc2c(-c3cc(C)c4[nH]ncc4c3)c(-c3ccc(F)cc3)ccn2n1` [Example 47, 7-(4-Fluorophenyl)-2-(methoxymethyl)-8-(7-methyl-1H-indazol-5-yl)-[1,2,4]triazolo[1,5-a]pyridine], 8.7. On to `Cc1cc(-c2c(C(F)(F)F)ncn3cc(C(F)(F)F)nc23)cc2cn[nH]c12` [Example 63, 8-(7-Methyl-1H-indazol-5-yl)-2,7-bis(trifluoromethyl)imidazo[1,2-c]pyrimidine], for which the pIC50 is 8.9. Same read-out and setting: in the case of `CC(C)c1ncn2cc(C(F)(F)F)nc2c1-c1cc(Cl)c2[nH]ncc2c1` [Example 71, 8-(7-Chloro-1H-indazol-5-yl)-7-isopropyl-2-(trifluoromethyl)imidazo[1,2-c]pyrimidine] it was 9.8; in that of `Cc1cc(-c2c(C#N)ccn3nc(C(F)(F)F)nc23)cc2cn[nH]c12` [Example 10, 8-(7-Methyl-1H-indazol-5-yl)-2-(trifluoromethyl)-[1,2,4]triazolo[1,5-a]pyridine-7-carbonitrile], 7.7.

Consider `CCc1cn2ccc(C(F)(F)F)c(-c3cc(C)c4[nH]ncc4c3)c2n1` [Example 92, 2-Ethyl-8-(7-methyl-1H-indazol-5-yl)-7-(trifluoromethyl)imidazo[1,2-a]pyridine], for which the pIC50 turned out to be 9.4. As to `FC(F)(F)c1ncn2c(Cl)c(C3CC3)nc2c1-c1cc(Cl)c2[nH]ncc2c1` [Example 81, 3-Chloro-8-(7-chloro-1H-indazol-5-yl)-2-cyclopropyl-7-(trifluoromethyl)imidazo[1,2-c]pyrimidine], the pIC50 is reported as 9.9. As for `Cc1cc(-c2c(C(F)F)ccn3nc(C(F)(F)F)nc23)cc2cn[nH]c12` [Example 24, 8-(7-Methyl-1H-indazol-5-yl)-7-(difluoromethyl)-2-(trifluoromethyl)-[1,2,4]triazolo[1,5-a]pyridine], the negative logarithm of the IC50 (pIC50) is given as 9.2. Consider `Cc1ccn2cc(C(F)(F)F)nc2c1-c1cc(C)c2[nH]ncc2c1` [Example 52, 7-Methyl-8-(7-methyl-1H-indazol-5-yl)-2-(trifluoromethyl)imidazo[1,2-a]pyridine], for which the pIC50 is on record as 8.0.

For the compound `FC(F)(F)c1ncn2cc(C3CC3)nc2c1-c1cc(Cl)c2[nH]ncc2c1` [Example 67, 8-(7-Chloro-1H-indazol-5-yl)-2-cyclopropyl-7-(trifluoromethyl)imidazo[1,2-c]pyrimidine], the pIC50 was 9.9. The same measure, in the same setting: as for `O=c1[nH]c2ccc(-c3c(C(F)(F)F)ccn4nc(C(F)(F)F)nc34)cc2s1` [Example 3, 6-(2,7-Bis(trifluoromethyl)-[1,2,4]triazolo[1,5-a]pyridin-8-yl)benzo[d]thiazol-2(3H)-one], the figure is 8.1; as for `O=C1Cc2cc(-c3c(C(F)F)ccn4nc(C(F)(F)F)nc34)cc(Cl)c2N1` [Example 25, 7-Chloro-5-(7-(difluoromethyl)-2-(trifluoromethyl)-[1,2,4]triazolo[1,5-a]pyridin-8-yl)indolin-2-one], 9.2. As for `FC(F)(F)c1ccn2nc(C3CC3)nc2c1-c1cc(Cl)c2[nH]ncc2c1` [Example 30, 8-(7-Chloro-1H-indazol-5-yl)-2-cyclopropyl-7-(trifluoromethyl)-[1,2,4]triazolo[1,5-a]pyridine], the pIC50 was 9.8. Take `Cc1cc(-c2c(C(F)F)ccn3nc(C(F)(F)F)nc23)cc2c1NC(=O)C2` [Example 26, 7-Methyl-5-(7-(difluoromethyl)-2-(trifluoromethyl)-[1,2,4]triazolo[1,5-a]pyridin-8-yl)indolin-2-one]: the pIC50 turned out to be 9.0. The same measure, in the same setting: in the case of `Cc1nc(C2CC2)c(-c2cc(Cl)c3[nH]ncc3c2)c2nc(C(F)(F)F)cn12` [Example 79] it was 8.9; in that of `Cc1ccn2cc(C(F)(F)F)nc2c1-c1ccc2[nH]ncc2c1` [Example 50, 8-(1H-Indazol-5-yl)-7-methyl-2-(trifluoromethyl)imidazo[1,2-a]pyridine], 7.2. Consider `Cc1cc(-c2c(C(F)(F)F)ncn3cc(C(F)F)nc23)cc2cn[nH]c12` [Example 15, 2-(Difluoromethyl)-8-(7-methyl-1H-indazol-5-yl)-7-(trifluoromethyl)imidazo[1,2-c]pyrimidine], for which the IC50 (usually the midpoint of a concentration-inhibition curve) was 2 nM.

As for `Cc1cc(-c2c(C(F)(F)F)ccn3nc(C(F)F)nc23)cc2c1NC(=O)C2` [Example 18, 7-Methyl-5-(2-(difluoromethyl)-7-(trifluoromethyl)-[1,2,4]triazolo[1,5-a]pyridin-8-yl)indolin-2-one], the pIC50 is 8.6. The same measure, in the same setting: as for `FC(F)(F)c1cn2cnc(C3CC3)c(-c3cc(Cl)c4[nH]ncc4c3)c2n1` [Example 77, 8-(7-Chloro-1H-indazol-5-yl)-7-cyclopropyl-2-(trifluoromethyl)imidazo[1,2-c]pyrimidine], the figure is 9.0; as for `COc1ccn2cc(C(F)(F)F)nc2c1-c1cc(C)c2c(c1)CC(=O)N2` [Example 58, 5-[7-Methoxy-2-(trifluoromethyl)imidazo[1,2-a]pyridin-8-yl]-7-methyl-indolin-2-one], 7.8.

Take `CCc1cn2cnc(C(F)(F)F)c(-c3cc(Cl)c4[nH]ncc4c3)c2n1` [Example 64, 8-(7-Chloro-1H-indazol-5-yl)-2-ethyl-7-(trifluoromethyl)imidazo[1,2-c]pyrimidine]: the pIC50 is on record as 9.3. On the same count and under the same terms, in the case of `Cc1cc(-c2c(C(F)(F)F)ccn3nc(C(F)(F)F)nc23)cc2c1NC(=O)C2` [Example 22, 5-(2,7-Bis(trifluoromethyl)-[1,2,4]triazolo[1,5-a]pyridin-8-yl)-7-methylindolin-2-one] it was 9.1; in that of `Fc1ccc(-c2ccn3nc(C(F)(F)F)nc3c2-c2cc(F)c3[nH]ncc3c2)cc1` [Example 42, 7-(4-Fluorophenyl)-8-(7-fluoro-1H-indazol-5-yl)-2-(trifluoromethyl)-[1,2,4]triazolo[1,5-a]pyridine], 9.0. On the same count and under the same terms, as for `Cc1cc(-c2c(C3CCCC3)ccn3nc(C(F)(F)F)nc23)cc2cn[nH]c12` [Example 6, 7-Cyclopentyl-8-(7-methyl-1H-indazol-5-yl)-2-(trifluoromethyl)-[1,2,4]triazolo[1,5-a]pyridine], the figure is 10.1. Same read-out and setting: as for `CCc1nc2c(-c3cc(C)c4c(c3)CC(=O)N4)c(C(F)(F)F)ccn2n1` [Example 36, 5-[2-Ethyl-7-(trifluoromethyl)-[1,2,4]triazolo[1,5-a]pyridin-8-yl]-7-methyl-indolin-2-one], the figure is 8.7.
